pIC50: −log10 of the molar value. In brackets after ≈: the same amount, converted by molar mass. Entries after “also recorded” stand apart in the source; their conditions may differ. Where two headings read alike, the source gives them in different places.
Legend:
[1] = human, in vivo
[2] = test system: Plasmodium Falciparum drug resistant reference strain W2; conditions: read-out: 50% Inhibition concentration value (IC50); free Chloroquine; known value of strain W2; cited from earlier work
[3] = test system: Plasmodium Falciparum drug resistant reference strain W2; assay: Growth of malaria parasites in human erythrocyte cultures (% parasitaemia, Giemsa smears); type: cell-based
From the text: The specific parasite investigated was the reference drug resistant strain W2 of the species Plasmodium Falciparum. Plasmodium Falciparum is the most commonly occurring as well as the most virulent malaria parasite currently known in man.
The system used in this investigation aims to mimic the live situation as closely as possible. For that reason, the parasites were infected into fresh primary erythrocytes isolated from O+ or A+ blood donors.
Furthermore, human serum prepared from the same donors was used as an adjuvant instead of foetal calf serum. Parasite growth was maintained by the addition of freshly prepared erythrocytes from the same donors.
The growth of the parasites was determined by visualization of the parasite DNA on thin smears of the infected cultures. Since mature erythrocytes contain no nucleus, and therefore no DNA, the only DNA present was of parasitic origin. Only intracellular parasites were included in determining the percentage parasitaemia, as extracellular parasites are no longer viable.
A. Culturing of Malaria Parasites: • 1. Preparation of fresh human erythrocytes • 2. Preparation of human serum from the same donor. • 3. Quality control of human serum. • 4. Infection of erythrocyte cultures with parasites. Initial infection load was 0.5% parasitaemia. • 5. Maintenance of parasite blood cultures • 6. The parasite percentage in the blood cultures was determined after 36 or 48 hours, depending on the level of infection of the freshly added erythrocytes.
A stock solution of 10 mM chloroquine solution in a 1:250 dilution of nanolipid formulation was made by vortexing and sonication. All concurrent dilutions were from this stock.
D Drug Delivery by MZL Nanolipid Formulations: • 1 Penetrance of nanolipid formulations in red blood cells was determined by microscopic visualization, as were the penetrance of chloroquine-carrying nanolipid formulations. • 2. […] Typically 48-well plates or 96-well plates were used. 200 ul or 100 ul total culture volumes were used respectively, of which 90% of the volume was infected erythrocyte culture. 10% volume was used for the treatment, be it chloroquine in Nanolipid formulation, chloroquine in water, or for the controls 1:250 pure Nanolipid formulation, pure culturing media or water only. • 4. All series were in duplicate.
Parasitic DNA was visualised by Giemsa staining of thin smears. Ethidium bromide or acridine orange may be used for fluorescent staining.
The % infection after applicable incubation periods was determined as follows: […]

[4] = 20° C. and 2 atm pressure; cited from earlier work
[5] = test system: HIV subtype D viruses in CD4 helper T-cells (CEM-SS cell line); assay: HIV viral load (p24 core antigen ELISA) in infected CD4 helper T-cells; type: cell-based, HIV-1
Procedure: The following protocols were followed in this investigation: • a) Several cultures of CD4 helper T-cells (CEM-SS cell line; NIH AIDS Research and Reference Reagent Program) were infected with HIV subtype D viruses at applicable cell seeding densities and viral loads. Cells were maintained in tissue culture under standard culturing conditions. • b) The viral load in cultured cells were determined every day for 7 consecutive days after infection by measuring the p24 core antigen of HIV-1 in the supernatant culturing fluid by ELISA. This assay is based on a colour change after addition of substrate that is proportionate to the viral replication in each culture. The colour change is monitored by absorbance spectrophotometry at 450 nm. Negative control absorbance readings were used to calculate the absorbance/cut-off for each culture. • c) Determination of the optimal concentration of nanolipid-vesicle containing base formulation was done by cytotoxicity assays and cell growth curves. The cytotoxicity assay used was the standard MTT assay and spectrophotometry was once again used to determine cell viability for the CEM-SS cell line. Growth curves were used to determine the optimal concentration of base formulation for human macrophage cells (THP-1 cell line).

[6] = test system: S. Aureus and P. Aeruginosa; assay: Zone of inhibition study of Povidone iodine; type: cell-based; conditions: formulated with the nanolipid vesicles of Preparation 2; 6.30 g Povidone iodine in 100 g; FIG. 2
[7] = test system: M. tuberculosis H37Rv; assay: BACTEC growth index with Ethambutol with and without MZL; type: cell-based, Mycobacterium tuberculosis; conditions: for inhibition at 0.0325 µg/mL: 0.0325 μg/ml Ethambutol; for inhibition at 0.0625 µg/mL: 0.0625 μg/ml Ethambutol; for inhibition at 0.125 µg/mL: 0.125 μg/ml Ethambutol; for inhibition at 0.25 µg/mL: 0.25 μg/ml Ethambutol; for inhibition at 0.5 µg/mL: 0.5 μg/ml Ethambutol; for inhibition at 1 µg/mL: 1.0 μg/ml Ethambutol
[8] = test system: melanoma cells (UCT MeI 1 cell line) incubated with fungi; conditions: 0.2%
[9] = test system: BCG (Bacillus of Calmette and Guerin); conditions: after a two-hour incubation; free drug
[10] = Mycobacterium tuberculosis, H37RV, Minus MZL
[11] = Mycobacterium tuberculosis, H37RV, Plus MZL

## NNC(=O)c1ccncc1 [INH, Isoniazid]
[1]
  bioavailability versus comparator Rifafour: enhanced bioavailability

## CCN(CC)CCCC(C)Nc1ccnc2cc(Cl)ccc12 (centres unmarked) [Chloroquine]
[2]
  pIC50: 6.52 to 6.70
[3]; 1 nM chloroquine
  % Parasit: 2.67%
[3]; 5 nM chloroquine
  % Parasit: 2.33%
[3]; 10 nM chloroquine
  % Parasit: 2.96%
[3]; 25 nM chloroquine
  % Parasit: 2.84%
[3]; 50 nM chloroquine
  % Parasit: 2.7%
[3]; 75 nM chloroquine
  % Parasit: 3.33%
[3]; 100 nM chloroquine
  % Parasit: 2.81%
[3]; 200 nM chloroquine
  % Parasit: 2.87%
[3]; 300 nM chloroquine
  % Parasit: 1.8%
[3]; 500 nM chloroquine
  % Parasit: 1.5%
[3]; 1000 nM chloroquine
  % Parasit: 1.4%

## CO[C@H]1/C=C/O[C@@]2(C)Oc3c(C)c(O)c4c(O)c(c(/C=N/N5CCN(C)CC5)c(O)c4c3C2=O)NC(=O)/C(C)=C\C=C\[C@H](C)[C@H](O)[C@@H](C)[C@@H](O)[C@@H](C)[C@H](OC(C)=O)[C@@H]1C [Rifampicin]
[1]; female
  increase of coverage by the nanolipid delivery system: 180%
  total average increase in bioavailability by Nanolipid delivery system: 227%
[1]; female, po
  Tmax: 1 h

## [N-]=[N+]=O [Nitrous oxide]
[4]
  solubility in water: one liter of the gas dissolves in 1.5 liters of water

## Cc1cn([C@H]2C[C@H](N=[N+]=[N-])[C@@H](CO)O2)c(=O)[nH]c1=O [free AZT, AZT]
[5]; 0.1 nM free AZT, by day 7 and 8
  inhibition of viral growth and replication compared to the control: 44%
[5]; dilution of base-formulation 1:256
  AZT concentration at which viral inhibition is optimal: 0.5 to 1 nM

## Povidone iodine
[6]
  inhibition of bacterial growth versus free active: dramatically increased

## CC[C@@H](CO)NCCN[C@@H](CC)CO [Ethambutol]
[7]; MZL treated, over the range of 0.03125 μg/ml-0.125 μg/ml Ethambutol
  inhibition maintained with MZL: approx 50%
[7]; Mycobacterium tuberculosis, H37RV
  MIC: ~1 µg/mL (≈ 4.89 µM)
[7]; Mycobacterium tuberculosis, H37RV, Minus MZL, read-out: % Inhibition
  inhibition at 0.0325 µg/mL: -21%
[7]; [10]
  inhibition at 0.0625 µg/mL: -16%
  inhibition at 0.125 µg/mL: -12%
  inhibition at 0.25 µg/mL: 51%
  inhibition at 0.5 µg/mL: 81%
  inhibition at 1 µg/mL: 92%
[7]; [11]
  inhibition at 0.0325 µg/mL: 48%
  inhibition at 0.0625 µg/mL: 49%
  inhibition at 0.125 µg/mL: 52%
  inhibition at 0.25 µg/mL: 51%
  inhibition at 0.5 µg/mL: 62%
  inhibition at 1 µg/mL: 86%

## Clc1ccc(COC(Cn2ccnc2)c2ccc(Cl)cc2Cl)c(Cl)c1 (centres unmarked) [Free Miconazole, Miconazole nitrate]
[8]; 4 hours incubation
  presence of fungi: fungi were still present in large numbers
[8]; 4 hours incubation with fungi, listed as free Miconazole nitrate
  viability / state of human melanoma cells: decline dramatically; also recorded: cells were no longer attached to the petri dish

## NC(=O)c1cnccn1 [free Pyrazinamide, Pyrazinamide]
[1]
  bioavailability versus comparator Rifafour: enhanced bioavailability
[9]
  BCG-viability: 68-72%

Reference: US8329685B1, “Enhancement of the action of anti-infective agents and of central and peripheral nervous system agents and transportation of nucleic acid substances” (priority 2001, dated 2012)
